Target: T1, Human M4 (Homo sapiens, UniProt P08173)
T1 construct: expressed in transfected cells
T1 sequence (P08173 1-479): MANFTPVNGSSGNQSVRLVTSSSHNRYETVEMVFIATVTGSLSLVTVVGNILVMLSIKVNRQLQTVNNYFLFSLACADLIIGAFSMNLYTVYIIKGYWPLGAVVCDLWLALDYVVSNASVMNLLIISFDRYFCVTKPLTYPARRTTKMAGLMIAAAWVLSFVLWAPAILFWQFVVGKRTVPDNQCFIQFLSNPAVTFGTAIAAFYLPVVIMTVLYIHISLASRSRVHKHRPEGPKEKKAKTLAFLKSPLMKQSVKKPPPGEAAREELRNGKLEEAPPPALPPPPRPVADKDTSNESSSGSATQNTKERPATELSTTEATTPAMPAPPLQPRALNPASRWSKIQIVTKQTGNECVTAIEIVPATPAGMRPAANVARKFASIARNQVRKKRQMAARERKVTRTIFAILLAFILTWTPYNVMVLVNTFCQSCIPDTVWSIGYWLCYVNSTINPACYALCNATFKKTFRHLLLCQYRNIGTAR
Experiment: mAChR M4 cell-based functional assay (calcium flux, potentiation of EC20 acetylcholine response), hM4-Gqi5 CHO-K1 cells
Conditions: for Emax at 30 µM: % ACh maximum at 30 μM, human M4, read-out: Emax; for EC50: hM4-Gqi5 CHO-K1 cells, calcium flux, PAM of EC20 acetylcholine, read-out: Human M4 EC50
Experimental: Human and rat M4 cDNAs, along with the chimeric G protein Gqi5, were transfected into Chinese hamster ovary (CHO-K1) cells purchased from the American Type Culture Collection using Lipofectamine2000. hM4-Gqi5 cells were grown in Ham's F-12 medium containing 10% heat-inactivated fetal bovine serum (FBS), 20 mM HEPES, 50 μg/mL G418 sulfate, and 500 μg/mL Hygromycin B. rM4-Gqi5 cells were grown in DMEM containing 10% heat-inactivated FBS, 20 mM HEPES, 400 μg/mL G418 sulfate, and 500 μg/mL Hygromycin B.
For high throughput measurement of agonist-evoked increases in intracellular calcium, CHO-K1 cells stably expressing muscarinic receptors were plated in growth medium lacking G418 and hygromycin at 15,000 cells/20 μL/well in Greiner 384-well black-walled, tissue culture (TC)-treated, clear-bottom plates (VWR). Cells were incubated overnight at 37° C. and 5% CO2. The next day, cells were washed using an ELX 405 (BioTek) with assay buffer; the final volume was then aspirated to 20 μL. Next, 20 μL of a 2.3 μM stock of Fluo-4/acetoxymethyl ester (Invitrogen, Carlsbad, CA), prepared as a 2.3 mM stock in DMSO and mixed in a 1:1 ratio with 10% (w/v) Pluronic F-127 and diluted in assay buffer, was added to the wells and the cell plates were incubated for 50 min at 37° C. and 5% CO2. Dye was removed by washing with the ELX 405 and the final volume was aspirated to 20 μL. Compound master plates were formatted in an 11 point concentration-response curve (CRC) format (1:3 dilutions) in 100% DMSO with a starting concentration of 10 mM using a BRAVO liquid handler (Agilent). Test compound CRCs were then transferred to daughter plates (240 nL) using the Echo acoustic plate reformatter (Labcyte, Sunnyvale, CA) and then diluted into assay buffer (40 μL) to a 2× stock using a Thermo Fisher Combi (Thermo Fisher Scientific, Waltham, MA).
Calcium flux was measured using the Functional Drug Screening System (FDSS) 6000 or 7000 (Hamamatsu Corporation, Tokyo, Japan) as an increase in the fluorescent static ratio. Compounds were applied to cells (20 μL, 2×) using the automated system of the FDSS at 2-4 seconds into the protocol and the data were collected at 1 Hz. At 144 seconds, 10 μL of an EC20 concentration of the muscarinic receptor agonist acetylcholine was added (5×), followed by the addition of 12 μL of an EC80 concentration of acetylcholine at the 230 second time point (5×). Agonist activity was analyzed as a concentration-dependent increase in calcium mobilization upon compound addition. Positive allosteric modulator activity was analyzed as a concentration-dependent increase in the EC20 acetylcholine response. Antagonist activity was analyzed as a concentration-dependent decrease in the EC80 acetylcholine response. Concentration-response curves were generated using a four-parameter logistical equation in XLFit curve fitting software (IDBS, Bridgewater, NJ) for Excel (Microsoft, Redmond, WA) or Prism (GraphPad Software, Inc., San Diego, CA).
Compounds were synthesized as described above. Activity (EC50 and Emax) was determined in the mAChR M4 cell-based functional assay as described above and the data are shown in Tables 2-4. The compound number corresponds to the compound numbers used in Table 1.

Compound | Emax at 30 µM (CHO-K1) | EC50 | Emax (CHO-K1)
Cc1c(N2CCc3ncc(N4CCC5OCCCC5C4)cc3C2)nn2cnnc2c1C (stereo not shown) [Compound 25, 6-[6-(7,8-dimethyl-[1,2,4]triazolo[4,3-b]pyridazin-6-yl)-7,8-dihydro-5H-1,6-naphthyridin-3-yl]-2,3,4,4a,5,7,8,8a-octahydropyrano[3,2-c]pyridine] | 65% | 348 nM | 
Cc1c(N2CCc3ncc(NCC4CCCO4)cc3C2)nn2cnnc2c1C (stereo not shown) [Compound 26, 6-(7,8-dimethyl-[1,2,4]triazolo[4,3-b]pyridazin-6-yl)-N-(tetrahydrofuran-2-ylmethyl)-7,8-dihydro-5H-1,6-naphthyridin-3-amine] | 75% | 737 nM | 
COc1ccc(Nc2cnc3c(c2)CN(c2nn4cnnc4c(C)c2C)CC3)c(F)c1 [Compound 28, 6-(7,8-dimethyl-[1,2,4]triazolo[4,3-b]pyridazin-6-yl)-N-(2-fluoro-4-methoxy-phenyl)-7,8-dihydro-5H-1,6-naphthyridin-3-amine] | 93% | 231 nM | 
Cc1c(N2CCc3ncc(Nc4cc(F)ccc4F)cc3C2)nn2cnnc2c1C [Compound 32, N-(2,5-difluorophenyl)-6-(7,8-dimethyl-[1,2,4]triazolo[4,3-b]pyridazin-6-yl)-7,8-dihydro-5H-1,6-naphthyridin-3-amine] | 102% | 84.8 nM | 
Cc1c(N2CCc3ncc(Nc4ccccc4F)cc3C2)nn2cnnc2c1C [Compound 33, 6-(7,8-Dimethyl-[1,2,4]triazolo[4,3-b]pyridazin-6-yl)-N-(2-fluorophenyl)-5,6,7,8-tetrahydro-1,6-naphthyridin-3-amine] |  | 161 nM | 94%
Cc1c(N2CCc3ncc(Nc4cc(Cl)ccc4F)cc3C2)nn2cnnc2c1C [Compound 34, N-(5-chloro-2-fluoro-phenyl)-6-(7,8-dimethyl-[1,2,4]triazolo[4,3-b]pyridazin-6-yl)-7,8-dihydro-5H-1,6-naphthyridin-3-amine] | 93% | 562 nM | 
Cc1c(N2CCc3ncc(-c4ccc(C5CC5)nc4)cc3C2)nn2cnnc2c1C [Compound 38, 3-(6-cyclopropyl-3-pyridyl)-6-(7,8-dimethyl-[1,2,4]triazolo[4,3-b]pyridazin-6-yl)-7,8-dihydro-5H-1,6-naphthyridine] | 90% | 149 nM | 
COc1ccncc1-c1cnc2c(c1)CN(c1nn3cnnc3c(C)c1C)CC2 [Compound 41, 6-(7,8-dimethyl-[1,2,4]triazolo[4,3-b]pyridazin-6-yl)-3-(4-methoxy-3-pyridyl)-7,8-dihydro-5H-1,6-naphthyridine] | 81% | 442 nM | 
Cc1c(N2CCc3ncc(-c4ccc(F)nc4)cc3C2)nn2cnnc2c1C [Compound 42, 6-(7,8-dimethyl-[1,2,4]triazolo[4,3-b]pyridazin-6-yl)-3-(6-fluoro-3-pyridyl)-7,8-dihydro-5H-1,6-naphthyridine] | 94% | 217 nM | 
COc1ccc(-c2cnc3c(c2)CN(c2nn4cnnc4c(C)c2C)CC3)cn1 [Compound 43, 6-(7,8-dimethyl-[1,2,4]triazolo[4,3-b]pyridazin-6-yl)-3-(6-methoxy-3-pyridyl)-7,8-dihydro-5H-1,6-naphthyridine] | 94% | 182 nM | 
Cc1c(N2CCc3ncc(Nc4cc(Cl)c(F)cc4F)cc3C2)nn2cnnc2c1C [Compound 45, N-(5-chloro-2,4-difluoro-phenyl)-6-(7,8-dimethyl-[1,2,4]triazolo[4,3-b]pyridazin-6-yl)-7,8-dihydro-5H-1,6-naphthyridin-3-amine] | 71% | 271 nM | 

The next lines start with the values.

Emax at 30 µM (CHO-K1) | EC50 | Emax (CHO-K1) | Compound
94% |  |  | Cc1c(N2CCc3ncc(-c4cnn(Cc5ccccn5)c4)cc3C2)nn2cnnc2c1C [Compound 24, 6-(7,8-dimethyl-[1,2,4]triazolo[4,3-b]pyridazin-6-yl)-3-[1-(2-pyridylmethyl)pyrazol-4-yl]-7,8-dihydro-5H-1,6-naphthyridine]
77% | 597 nM |  | COc1ccc(Nc2cnc3c(c2)CN(c2nn4cnnc4c(C)c2C)CC3)c(F)c1F [Compound 27, N-(2,3-difluoro-4-methoxy-phenyl)-6-(7,8-dimethyl-[1,2,4]triazolo[4,3-b]pyridazin-6-yl)-7,8-dihydro-5H-1,6-naphthyridin-3-amine]
87% | 443 nM |  | Cc1c(N2CCc3ncc(Nc4c(F)ccc(Cl)c4F)cc3C2)nn2cnnc2c1C [Compound 29, N-(3-chloro-2,6-difluoro-phenyl)-6-(7,8-dimethyl-[1,2,4]triazolo[4,3-b]pyridazin-6-yl)-7,8-dihydro-5H-1,6-naphthyridin-3-amine]
94% | 120 nM |  | Cc1c(N2CCc3ncc(Nc4cc(F)cc(F)c4F)cc3C2)nn2cnnc2c1C [Compound 30, 6-(7,8-dimethyl-[1,2,4]triazolo[4,3-b]pyridazin-6-yl)-N-(2,3,5-trifluorophenyl)-7,8-dihydro-5H-1,6-naphthyridin-3-amine]
88% | 455 nM |  | COc1cc(F)c(Nc2cnc3c(c2)CN(c2nn4cnnc4c(C)c2C)CC3)c(F)c1 [Compound 31, N-(2,6-difluoro-4-methoxy-phenyl)-6-(7,8-dimethyl-[1,2,4]triazolo[4,3-b]pyridazin-6-yl)-7,8-dihydro-5H-1,6-naphthyridin-3-amine]
78% | 1900 nM |  | Cc1cc(-c2cnc3c(c2)CN(c2nn4cnnc4c(C)c2C)CC3)cc(Cl)n1 [Compound 35, 3-(2-chloro-6-methyl-4-pyridyl)-6-(7,8-dimethyl-[1,2,4]triazolo[4,3-b]pyridazin-6-yl)-7,8-dihydro-5H-1,6-naphthyridine]
85% | 295 nM |  | Cc1c(N2CCc3ncc(-c4ccc(C(F)(F)F)nc4)cc3C2)nn2cnnc2c1C [Compound 36, 6-(7,8-dimethyl-[1,2,4]triazolo[4,3-b]pyridazin-6-yl)-3-[6-(trifluoromethyl)-3-pyridyl]-7,8-dihydro-5H-1,6-naphthyridine]
59% | 2280 nM |  | Cc1ncc(-c2cnc3c(c2)CN(c2nn4cnnc4c(C)c2C)CC3)cn1 [Compound 37, 6-(7,8-dimethyl-[1,2,4]triazolo[4,3-b]pyridazin-6-yl)-3-(2-methylpyrimidin-5-yl)-7,8-dihydro-5H-1,6-naphthyridine]
95% | 115 nM |  | Cc1ccc(-c2cnc3c(c2)CN(c2nn4cnnc4c(C)c2C)CC3)cn1 [Compound 39, 6-(7,8-dimethyl-[1,2,4]triazolo[4,3-b]pyridazin-6-yl)-3-(6-methyl-3-pyridyl)-7,8-dihydro-5H-1,6-naphthyridine]
69% | 716 nM |  | Cc1c(N2CCc3ncc(-c4cncc(C#N)c4)cc3C2)nn2cnnc2c1C [Compound 40, 5-[6-(7,8-dimethyl-[1,2,4]triazolo[4,3-b]pyridazin-6-yl)-7,8-dihydro-5H-1,6-naphthyridin-3-yl]pyridine-3-carbonitrile]
92% | 147 nM |  | Cc1c(N2CCc3ncc(-c4cccnc4)cc3C2)nn2cnnc2c1C [Compound 44, 6-(7,8-dimethyl-[1,2,4]triazolo[4,3-b]pyridazin-6-yl)-3-(3-pyridyl)-7,8-dihydro-5H-1,6-naphthyridine]
